In patent publication US9750255B2, “Agricultural or horticultural chemical, method of controlling plant diseases, and product for controlling plant diseases” (Kureha Corporation, priority 2013, dated 2017):

How the values were obtained:
[1] = test system: Fusarium graminearum; experiment: microbe, parasite or virus in culture; format: cell-based
[2] = test system: Septoria tritici; experiment: In vitro antimicrobial activity test, colony diameter on PDA plate, Septoria tritici; conditions: for Fungal growth inhibition rate (%) Measured value: 25° C., 14 days
[3] = test system: Microdochium nivale; experiment: In vitro antimicrobial activity test, colony diameter on PDA plate, Microdochium nivale
[4] = test system: Penicilium italicum; experiment: In vitro antimicrobial activity test, colony diameter on PDA plate, Penicilium italicum
[5] = test system: Phaeosphaeria nodorum; experiment: In vitro antimicrobial activity test, colony diameter on PDA plate, Phaeosphaeria nodorum
[6] = Fusarium graminearum, 72 h, read-out: Fungal growth inhibition rate (%) Measured value
[7] = Zymoseptoria tritici, 336 h, read-out: Fungal growth inhibition rate (%) Measured value
[8] = Parastagonospora nodorum, 168 h, read-out: Fungal growth inhibition rate (%) Measured value
[9] = Microdochium nivale, 72 h, read-out: Fungal growth inhibition rate (%) Measured value
[10] = 72 h, read-out: Fungal growth inhibition rate (%) Measured value

Fc1ccc([C@]2(Cn3cncn3)O[C@H]2c2ccccc2Cl)cc1 (racemic) [Epoxiconazole, epoxiconazole]
inhibition at 0.01 ppm [1, 6]: 22%
inhibition at 0.04 ppm [1, 6]: 27%
inhibition at 0.16 ppm [1, 6]: 39%
inhibition at 0.63 ppm [1, 6]: 57%
inhibition at 2.5 ppm [1, 6]: 88%

COC(=O)C1(C)CCC(Cc2ccc(Cl)cc2)C1(O)Cn1cncn1 (stereo not drawn) [Compound (1), methyl 3-(4-chlorobenzyl)-2-hydroxy-1-methyl-2-(1H-1,2,4-triazole-1-ylmethyl)cyclopentane carbonate]
Fungal growth inhibition rate (%) Measured value ([1]; Test Example 3, compound (1) 1.25 ppm alone, 25° C., 3 days): 93%
Fungal growth inhibition rate (%) Measured value ([2]; Test Example 1, compound (1) 0.005 ppm alone): 35%
Fungal growth inhibition rate (%) Measured value ([2]; Test Example 2, compound (1) 0.02 ppm alone): 3%
Fungal growth inhibition rate (%) Measured value ([2]; Test Example 7, compound (1) 1.25 ppm alone): 70%
Fungal growth inhibition rate (%) Measured value ([2]; Test Example 8, compound (1) 1.25 ppm alone): 77%
Fungal growth inhibition rate (%) Measured value ([3]; Test Example 4, compound (1) 0.313 ppm alone, 25° C., 3 days): 26%
Fungal growth inhibition rate (%) Measured value ([4]; Test Example 5, compound (1) 1.25 ppm alone, 25° C., 3 days): 83%
Fungal growth inhibition rate (%) Measured value ([5]; Test Example 6, compound (1) 1.25 ppm alone, 25° C., seven days): 89%

CC(Cc1ccc(C(C)(C)C)cc1)CN1CCCCC1 (stereo not drawn) [Fenpropidine, fenpropidine]
Fungal growth inhibition rate (%) Measured value ([2]; Test Example 8, fenpropidine 0.04 ppm alone): 0%
Fungal growth inhibition rate (%) Measured value ([2]; Test Example 8, fenpropidine 0.16 ppm alone): 0%
Fungal growth inhibition rate (%) Measured value ([2]; Test Example 8, fenpropidine 0.63 ppm alone): 40%
Fungal growth inhibition rate (%) Measured value ([2]; Test Example 8, fenpropidine 2.50 ppm alone): 38%
Fungal growth inhibition rate (%) Measured value ([2]; Test Example 8, fenpropidine 10.00 ppm alone): 40%

CC(Cc1ccc(C(C)(C)C)cc1)CN1C[C@@H](C)O[C@@H](C)C1 (stereo partly drawn) [Fenpropimorph, fenpropimorph]
inhibition at 0.04 ppm [2, 7]: 16%
inhibition at 0.16 ppm [2, 7]: 21%
inhibition at 0.63 ppm [2, 7]: 23%
inhibition at 2.5 ppm [2, 7]: 42%
inhibition at 10 ppm [2, 7]: 45%

CC(C)C1CCC(Cc2ccc(Cl)cc2)C1(O)Cn1cncn1 (stereo not drawn) [Ipconazole, ipconazole]
inhibition at 0.01 ppm [5, 8]: 20%
inhibition at 0.04 ppm [5, 8]: 31%
inhibition at 0.16 ppm [5, 8]: 62%
inhibition at 0.63 ppm [5, 8]: 76%

CC1(C)CCC(Cc2ccc(Cl)cc2)C1(O)Cn1cncn1 (stereo not drawn) [Metconazole, metconazole]
inhibition at 0.01 ppm [2, 7]: 0%
inhibition at 0.039 ppm [2, 7]: 0%
inhibition at 0.156 ppm [2, 7]: 11%
inhibition at 0.625 ppm [2, 7]: 56%
inhibition at 2.5 ppm [2, 7]: 98%

CCCC1COC(Cn2cncn2)(c2ccc(Cl)cc2Cl)O1 (stereo not drawn) [Propiconazole, propiconazole]
inhibition at 0.156 ppm [3, 9]: 0%
inhibition at 0.625 ppm [3, 9]: 45%
inhibition at 2.5 ppm [3, 9]: 76%

OC(Cc1ccccc1Cl)(Cn1nc[nH]c1=S)C1(Cl)CC1 (stereo not drawn) [Prothioconazole, prothioconazole]
inhibition at 0.01 ppm [2, 7]: 0%
inhibition at 0.039 ppm [2, 7]: 10%
inhibition at 0.156 ppm [2, 7]: 21%
inhibition at 0.625 ppm [2, 7]: 51%
inhibition at 2.5 ppm [2, 7]: 100%

CC(C)(C)C(O)(CCc1ccc(Cl)cc1)Cn1cncn1 (stereo not drawn) [Tebuconazole, tebuconazole]
inhibition at 0.04 ppm [4, 10]: 3%
inhibition at 0.16 ppm [4, 10]: 30%
inhibition at 0.63 ppm [4, 10]: 68%
inhibition at 2.5 ppm [4, 10]: 87%
inhibition at 10 ppm [4, 10]: 100%
